Measured values reported in paper PMC7007424 (Neurotherapeutics, 2019).
Entries after “also recorded” stand apart in the source; their conditions may differ. Read-outs that look alike come from different tables or passages of the source. Marks after values point to notes of the source that are not given here.

What was measured:
hepatoma HepG2 cells [1] = test: hepatotoxicity, HepG2 cell viability; format: cell-based
naïve mice = test: i.v. PTZ seizure threshold test in naïve mice; format: in vivo; conditions: acute
Method: All suspensions and solutions were prepared freshly and administered in a constant volume of 0.1 ml per 10 g of body weight. […] The timed i.v. PTZ test was used to evaluate the changes in seizure threshold in both naïve and kindled mice. The experimental procedure has been described in detail in our earlier studies.

[2] = system: L-type Ca^2+ (verapamil site, antagonist radioligand); parameters: method as in Rapacz et al. [12]; conditions: rat cerebral cortex, ref Rapacz et al. [12], cited from earlier work
[3] = metabolic stability on human liver microsomes (HLMs); format: in vitro ADME; conditions: 120 min incubation with HLMs
kindled mice = test: i.v. PTZ seizure threshold test in kindled mice; format: in vivo
CYP3A4 = CYP3A4 (Homo sapiens, UniProt P08684)
Sequence of CYP3A4 (P08684 whole entry): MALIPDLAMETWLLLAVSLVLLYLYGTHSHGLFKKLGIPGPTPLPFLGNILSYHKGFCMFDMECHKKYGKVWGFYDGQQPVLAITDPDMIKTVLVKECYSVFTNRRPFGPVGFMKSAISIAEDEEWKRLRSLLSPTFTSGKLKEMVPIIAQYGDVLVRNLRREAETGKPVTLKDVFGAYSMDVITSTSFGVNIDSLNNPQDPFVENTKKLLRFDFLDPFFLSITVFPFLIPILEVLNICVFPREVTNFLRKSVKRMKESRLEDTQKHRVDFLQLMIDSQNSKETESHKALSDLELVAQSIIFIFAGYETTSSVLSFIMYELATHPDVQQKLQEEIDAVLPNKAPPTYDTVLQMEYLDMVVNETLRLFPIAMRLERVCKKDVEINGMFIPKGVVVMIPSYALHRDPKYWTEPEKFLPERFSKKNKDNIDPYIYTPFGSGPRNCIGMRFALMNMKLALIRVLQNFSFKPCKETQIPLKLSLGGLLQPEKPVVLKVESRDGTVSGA

CB1 (h) = target: T1, CB1 (h) (Homo sapiens, UniProt P21554); test: CB1 functional assay (agonist and antagonist effect); format: cell-based; conditions: human recombinant (CHO cells), read-out: % inhibition of control agonist/antagonist response (antagonist effect)
T1 construct: Cerep Laboratories (contract testing)
T1 sequence (P21554 whole entry): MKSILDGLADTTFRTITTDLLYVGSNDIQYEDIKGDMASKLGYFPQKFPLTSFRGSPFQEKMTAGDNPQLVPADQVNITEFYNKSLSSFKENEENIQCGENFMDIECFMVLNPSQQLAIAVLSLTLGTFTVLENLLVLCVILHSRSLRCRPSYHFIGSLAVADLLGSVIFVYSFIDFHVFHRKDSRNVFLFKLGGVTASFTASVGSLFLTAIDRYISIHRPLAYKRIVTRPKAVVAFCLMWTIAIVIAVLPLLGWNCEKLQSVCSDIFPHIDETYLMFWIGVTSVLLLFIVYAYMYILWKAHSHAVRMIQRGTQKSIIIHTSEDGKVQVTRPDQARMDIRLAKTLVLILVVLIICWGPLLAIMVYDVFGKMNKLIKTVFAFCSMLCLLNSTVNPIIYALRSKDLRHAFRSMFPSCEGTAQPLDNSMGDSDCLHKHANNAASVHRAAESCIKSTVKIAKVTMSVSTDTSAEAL

zebrafish larvae = test: EEG discharge assessment in zebrafish larvae exposed to PTZ; conditions: 5 mM, 20 h incubation, then 20 mM PTZ for 5 min; vs vehicle-incubated control
[4] = system: PTZ-induced clonic seizures in mice; test: s.c. PTZ-induced clonic seizure test, with isobolographic analysis; format: in vivo; conditions: Mus musculus, drug alone i.p. 30 min before s.c. PTZ 100 mg/kg, ± SEM, read-out: ED50 against PTZ-induced clonic seizures
Method: Following PTZ administration, mice were placed separately in transparent Plexiglas cages (25 cm × 15 cm × 10 cm) and observed for 30 min for the occurrence of clonic seizures. Clonic seizure activity was defined as the clonus of the whole body lasting for over 3 s, with an accompanying loss of righting reflex.
To determine the ED50 mix value, both drugs in the mixture (at proportionally raised doses) were administered to the mice and a dose–response relationship for the mixture was denoted using Litchfield and Wilcoxon [25]’s log-probit method. • Statistical comparison of the experimentally derived ED50 mix values with their corresponding theoretically additive ED50 add values was undertaken using the unpaired Student’s t test, according to Tallarida [30]. • Graphical illustration of the examined interactions as isobolograms (i.e., simple forms of interaction visualizations).

[5] = system: 6-Hz (32 mA) psychomotor seizures; conditions: mice, i.p.; ref [10], [12]; cited from earlier work
[6] = system: PTZ-induced kindling in mice; test: PTZ-induced kindling; format: in vivo; conditions: 33 daily i.p. injections; AS-1 15, 30 and 60 mg/kg, VPA 150 mg/kg; PTZ 40 mg/kg i.p. every 48 h, 17 injections; vs PTZ-kindled control
Method: All suspensions and solutions were prepared freshly and administered in a constant volume of 0.1 ml per 10 g of body weight. In all experiments, AS-1 and VPA were injected i.p. Control animals received vehicles only. […] After each PTZ injection, mice were placed separately into transparent cages for 30 min for behavioral observation to assign an appropriate seizure score. […] After each PTZ injection, the mean seizure severity score for each experimental group was calculated. Non-kindled (control) mice were treated as kindled animals, except that they were injected with normal saline instead of PTZ. Experimental grouping for PTZ kindling was as follows: […]

[7] = system: NMDA (antagonist radioligand); parameters: method as in Rapacz et al. [12]; conditions: rat cerebral cortex, ref Rapacz et al. [12], cited from earlier work
mice [8] = test: grip strength test; format: in vivo; conditions: i.p. 30 min before, AS-1 81.12 mg/kg, VPA […], combination AS-1 27.6 + VPA 59.9 mg/kg
Description: The time before the commencement of the grip strength test (after drug administration) was identical to that of the PTZ test. This experimental procedure has been described in detail in our earlier studies.

TRPV1 (VR1) (h) = target: T2, TRPV1 (VR1) (h) (Homo sapiens, UniProt Q8NER1); test: TRPV1 functional assay (antagonist effect); format: cell-based; conditions: human recombinant (CHO cells), read-out: % inhibition of control agonist/antagonist response (antagonist effect)
T2 construct: Cerep Laboratories (contract testing)
T2 sequence (Q8NER1 whole entry): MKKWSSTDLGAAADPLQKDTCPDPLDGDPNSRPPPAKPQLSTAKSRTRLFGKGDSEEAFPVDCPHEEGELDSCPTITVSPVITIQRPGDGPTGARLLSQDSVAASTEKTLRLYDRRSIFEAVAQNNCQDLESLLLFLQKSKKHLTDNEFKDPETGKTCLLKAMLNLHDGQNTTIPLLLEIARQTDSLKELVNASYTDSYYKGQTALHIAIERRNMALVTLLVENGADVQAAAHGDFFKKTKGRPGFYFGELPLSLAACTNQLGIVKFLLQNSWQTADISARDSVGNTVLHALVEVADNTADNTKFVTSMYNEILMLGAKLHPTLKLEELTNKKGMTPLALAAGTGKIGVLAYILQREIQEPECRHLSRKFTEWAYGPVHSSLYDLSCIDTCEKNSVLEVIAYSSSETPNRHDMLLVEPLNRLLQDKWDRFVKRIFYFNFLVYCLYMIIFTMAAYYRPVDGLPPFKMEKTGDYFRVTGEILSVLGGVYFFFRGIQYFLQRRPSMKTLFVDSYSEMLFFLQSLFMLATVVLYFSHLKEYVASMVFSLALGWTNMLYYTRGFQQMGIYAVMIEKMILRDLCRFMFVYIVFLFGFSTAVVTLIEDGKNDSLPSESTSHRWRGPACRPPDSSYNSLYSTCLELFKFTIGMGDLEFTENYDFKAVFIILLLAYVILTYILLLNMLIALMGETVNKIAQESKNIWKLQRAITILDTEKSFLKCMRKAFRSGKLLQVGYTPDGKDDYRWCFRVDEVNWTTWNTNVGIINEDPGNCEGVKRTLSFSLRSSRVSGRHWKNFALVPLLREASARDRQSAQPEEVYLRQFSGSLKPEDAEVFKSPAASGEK

PTZ-kindled mice [9] = test: locomotor activity test in PTZ-kindled mice; format: in vivo; conditions: repeated i.p. injection, AS-1 15–60 mg/kg, VPA 150 mg/kg, day 34
Method: Twenty-four hours after the last PTZ injection (on day 34), mice were subjected to the locomotor activity test, the elevated plus maze test, and the forced swim test. Forty-eight hours after the last PTZ injection (on day 35) the i.v. PTZ seizure threshold test was performed. Spontaneous locomotor activity of mice was monitored using the […] system supported by SedaCom32 software (Panlab/Harvard Apparatus, Barcelona, Spain) according to the method described in detail elsewhere.

PTZ-kindled mice [10] = test: elevated plus maze test in PTZ-kindled mice; format: in vivo; conditions: repeated i.p. injection, AS-1 15–60 mg/kg, VPA 150 mg/kg
Method: Twenty-four hours after the last PTZ injection (on day 34), mice were subjected to the locomotor activity test, the elevated plus maze test, and the forced swim test. Forty-eight hours after the last PTZ injection (on day 35) the i.v. PTZ seizure threshold test was performed. The elevated plus maze test was used to assess the anxiety-like behavior in kindled animal, as described in detail in our previous study.

mice [11] = test: chimney test; format: in vivo; conditions: i.p. 30 min before, AS-1 81.12 mg/kg, VPA […], combination AS-1 27.6 + VPA 59.9 mg/kg
Description: [31]’s chimney test. The pretreatment time for AS-1 and VPA in the chimney test was identical to that of the PTZ test. This experimental procedure has been described in detail in our earlier studies.

CYP2D6 = CYP2D6 (Homo sapiens, UniProt P10635)
Sequence of CYP2D6 (P10635 whole entry): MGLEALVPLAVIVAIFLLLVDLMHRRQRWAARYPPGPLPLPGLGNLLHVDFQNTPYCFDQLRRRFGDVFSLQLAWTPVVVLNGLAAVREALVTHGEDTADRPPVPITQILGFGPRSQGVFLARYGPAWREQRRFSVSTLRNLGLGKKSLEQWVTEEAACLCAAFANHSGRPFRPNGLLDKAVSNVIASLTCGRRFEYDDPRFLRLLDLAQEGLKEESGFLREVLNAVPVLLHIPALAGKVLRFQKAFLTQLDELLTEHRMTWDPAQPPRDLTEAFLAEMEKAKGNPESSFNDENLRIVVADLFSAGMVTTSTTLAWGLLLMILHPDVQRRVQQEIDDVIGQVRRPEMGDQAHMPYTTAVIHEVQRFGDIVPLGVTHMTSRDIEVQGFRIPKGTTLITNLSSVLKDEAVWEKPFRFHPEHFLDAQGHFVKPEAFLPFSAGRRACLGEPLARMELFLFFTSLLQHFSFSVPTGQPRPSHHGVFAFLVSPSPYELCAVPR

hERG potassium channel = hERG potassium channel (Homo sapiens, UniProt Q12809); test: in vitro
Sequence of hERG potassium channel (Q12809 whole entry): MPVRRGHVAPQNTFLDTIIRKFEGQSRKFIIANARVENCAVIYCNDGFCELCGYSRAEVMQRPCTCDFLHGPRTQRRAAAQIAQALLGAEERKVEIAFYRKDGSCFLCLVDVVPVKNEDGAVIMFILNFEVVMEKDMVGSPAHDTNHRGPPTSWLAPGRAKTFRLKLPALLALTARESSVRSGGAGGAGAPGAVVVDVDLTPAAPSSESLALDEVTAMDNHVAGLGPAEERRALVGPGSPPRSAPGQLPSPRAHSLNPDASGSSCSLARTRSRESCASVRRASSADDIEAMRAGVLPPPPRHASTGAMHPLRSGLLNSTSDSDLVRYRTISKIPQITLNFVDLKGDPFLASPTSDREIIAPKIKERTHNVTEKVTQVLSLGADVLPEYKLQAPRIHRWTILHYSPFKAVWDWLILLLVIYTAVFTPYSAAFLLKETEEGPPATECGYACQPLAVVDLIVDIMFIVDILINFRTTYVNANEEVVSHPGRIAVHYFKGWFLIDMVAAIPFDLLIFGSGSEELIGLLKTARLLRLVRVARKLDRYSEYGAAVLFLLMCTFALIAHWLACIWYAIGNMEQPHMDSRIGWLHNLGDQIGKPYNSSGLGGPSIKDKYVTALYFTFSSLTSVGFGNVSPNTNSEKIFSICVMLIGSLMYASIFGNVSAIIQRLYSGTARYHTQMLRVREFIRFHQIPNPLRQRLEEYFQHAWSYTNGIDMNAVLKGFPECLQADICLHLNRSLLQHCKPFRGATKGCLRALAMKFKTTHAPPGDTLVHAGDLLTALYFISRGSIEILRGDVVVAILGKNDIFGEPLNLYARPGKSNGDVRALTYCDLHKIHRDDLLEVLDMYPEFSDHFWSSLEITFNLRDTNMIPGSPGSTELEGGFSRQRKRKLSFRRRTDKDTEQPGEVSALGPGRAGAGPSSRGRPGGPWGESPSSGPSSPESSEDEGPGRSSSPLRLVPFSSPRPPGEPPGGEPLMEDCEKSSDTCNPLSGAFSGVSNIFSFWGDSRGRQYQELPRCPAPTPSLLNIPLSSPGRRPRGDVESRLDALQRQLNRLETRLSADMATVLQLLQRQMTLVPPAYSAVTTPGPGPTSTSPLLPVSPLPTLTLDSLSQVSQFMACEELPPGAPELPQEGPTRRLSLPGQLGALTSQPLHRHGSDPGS

[12] = system: 6-Hz-induced seizures (44 mA); test: 6-Hz (44 mA) seizure model; format: in vivo; conditions: Mus musculus, ip; mice, i.p., 30 min before the test; 95% confidence intervals in parentheses
[13] = system: fast voltage-gated sodium channels; test: patch clamp of sodium currents in prefrontal cortex pyramidal neurons; format: cell-based, rats; conditions: 100 μM, holding potential − 65 mV, n = 6, p > 0.05
[14] = system: N-type Ca^2+ (antagonist radioligand); parameters: method as in Rapacz et al. [12]; conditions: 100 μM; rat cerebral cortex; ref Rapacz et al. [12]; cited from earlier work
[15] = parallel artificial membrane permeability assay (PAMPA); format: in vitro ADME; conditions: ± SD, read-out: Pe, permeability coefficient
[16] = system: GABA transporter (antagonist radioligand); test: GABA transporter binding; conditions: 100 μM; rat cerebral cortex
mice [17] = test: passive avoidance task; format: in vivo; conditions: i.p. 30 min before, AS-1 81.12 mg/kg, VPA […], combination AS-1 27.6 + VPA 59.9 mg/kg
[18] = system: L-type Ca^2+ (diltiazem site, antagonist radioligand); test: L-type Ca2+ channel (diltiazem site) binding; conditions: 100 μM; rat cerebral cortex
Na^+ channel (site 2) = system: Na^+ channel (site 2); parameters: method as in Rapacz et al. [12]; conditions: rat cerebral cortex, ref Rapacz et al. [12], cited from earlier work
hepatoma HepG2 cells [19] = conditions: 24 h incubation, only at the highest used dose of 100 μM; ref [12]; cited from earlier work
CYP2C9 = CYP2C9 (Homo sapiens, UniProt P11712); conditions: 10 μM
Sequence of CYP2C9 (P11712 whole entry): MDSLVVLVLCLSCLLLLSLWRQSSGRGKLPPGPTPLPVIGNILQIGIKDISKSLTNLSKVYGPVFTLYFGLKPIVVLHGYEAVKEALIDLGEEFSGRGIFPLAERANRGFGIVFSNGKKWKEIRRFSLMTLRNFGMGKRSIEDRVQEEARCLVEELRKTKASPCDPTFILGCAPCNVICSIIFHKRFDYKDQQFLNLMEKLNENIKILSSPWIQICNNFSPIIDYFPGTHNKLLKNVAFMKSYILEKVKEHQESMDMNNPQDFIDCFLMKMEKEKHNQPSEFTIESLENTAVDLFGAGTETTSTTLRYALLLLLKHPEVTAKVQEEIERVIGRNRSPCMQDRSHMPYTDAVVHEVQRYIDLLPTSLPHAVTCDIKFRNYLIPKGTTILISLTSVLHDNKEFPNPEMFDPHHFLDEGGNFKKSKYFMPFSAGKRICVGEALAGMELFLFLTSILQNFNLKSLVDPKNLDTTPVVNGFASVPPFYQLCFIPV

[20] = 15 mg/kg i.p., 30 min before the test
[21] = 30 mg/kg and 60 mg/kg i.p. (p < 0.01 and p < 0.001)
[22] = repeated i.p. pretreatment 15–60 mg/kg

Compound: CC(C(=O)NCc1ccccc1)N1C(=O)CCC1=O (stereo not shown) [AS-1, N-benzyl-2-(2,5-dioxopyrrolidin-1-yl)propanamide]
- HepG2 viability (hepatoma HepG2 cells [1]; 100 μM, 72 h incubation, ± SD): 82.3 ± 6.5^a Percentage of control
- effect on HepG2 cells' viability (hepatoma HepG2 cells [1]; only at the highest concentration used of 100 μM, 72 h, p < 0.05): slight but statistically significant effect
- effect on threshold for generalized clonus (naïve mice; [20]): did not affect significantly
- effect on threshold for the first myoclonic twitch (naïve mice; [20]): did not affect significantly
- effect on threshold for generalized clonic seizure (naïve mice; [21]): raised the thresholds
- effect on threshold for the first myoclonic twitch (naïve mice; [21]): raised the thresholds
- effect on susceptibility to PTZ-induced forelimb extension (forelimb tonus threshold) (naïve mice; 15–60 mg/kg i.p.): did not affect
- % inhibition of control-specific binding ([2]; 100 μM): 15.0%
- % inhibition of control-specific binding ([2]; 500 μM): 45.0%
- Phase I metabolism in human (metabolites by UPLC) [3]: no presence of metabolites; also recorded: No metabolites found
- effect on seizure threshold for the first myoclonic twitch (kindled mice; repeated i.p. injection of 60 mg/kg, 48 h after last PTZ, vs non-kindled control): significantly increased the seizure threshold
- effect on threshold for forelimb tonus (kindled mice; [22]): No changes
- effect on threshold for generalized clonus (kindled mice; [22]): No changes
- effect on CYP3A4 activity (CYP3A4): No significant effect
- inhibition at 100 µM (CB1 (h)): 5.6%
- effect on number of epileptiform discharges during 20 min (zebrafish larvae): significantly reduced
- ED50 [4]: 81.1 ± 10.4 mg/kg
- ED50 (6 Hz, 32 mA) [5]: 24.66 mg/kg
- effect on kindling development (mean seizure severity score) [6]: significantly suppressed kindling development
- % inhibition of control-specific binding ([7]; 100 μM): 15.0%
- % inhibition of control-specific binding ([7]; 200 μM): 35.0%
- Muscular strength, mean grip strength ± SEM (mice [8]): 99.9 ± 2.2 g
- inhibition at 100 µM (TRPV1 (VR1) (h)): 4.3%
- effect on spontaneous locomotor activity (PTZ-kindled mice [9]): did not affect locomotor activity
- effect on percentage of open arm entries and percentage of time spent in open arms (PTZ-kindled mice [10]): did not produce any significant changes
- Motor coordination, percentage of animals showing motor coordination impairment (mice [11]): 0%
- effect on CYP2D6 activity (CYP2D6): No significant effect
- CYP2D6 activity (CYP2D6; human, 10 μM): 104.4 ± 0.5^a Percentage of control
- inhibition at 100 µM (hERG potassium channel): 0.8%
- ED50 [12]: 75.4 mg/kg
- maximal amplitude of sodium currents normalized to control (1.0 in control) [13]: 0.93 ± 0.06
- % inhibition of control-specific binding [14]: 0.2 (100) %
- Papp [15]: 9.8 ± 2 ×10⁻⁶ cm/s
- % inhibition of control-specific binding [16]: 2.4 (100) %
- Retention time, median (25th; 75th percentiles) (mice [17]): 180 (146; 180) s
- % inhibition of control-specific binding [18]: 10.2 (100) %
- % inhibition of control-specific binding (Na^+ channel (site 2); 100 μM): 15.9%
- % inhibition of control-specific binding (Na^+ channel (site 2); 500 μM): 56.0%
- effect on HepG2 cells (hepatoma HepG2 cells [19]): weak, statistically significant toxic effect
- CYP2C9 activity (CYP2C9): 67.0 ± 3.6^a Percentage of control
